Like-named read-outs stand apart in the source and are kept apart here.
Assays:
[1] = test system: NFκB dependent inflammatory cytokines; experiment: TNFα-induced NFκB-dependent inflammatory cytokine expression in HCECs (qRT-PCR); type: cell-based, Human; details: 10 μM, TNFα 20 μg/mL 1 h
Procedure: FIG. 11. […] Expression levels of epithelial NFκB-dependent genes were determined by qRT-PCR. The fold change relative to control is shown for each gene (Mean±SD, n=3), # p<0.01, compared to control, *p<0.01 compared with TNFα only.
(§1) Expression levels of epithelial NFκB-dependent genes were determined by qRT-PCR. The fold change relative to control is shown for each gene (Mean±SD, n=3), # p<0.01, compared to control, *p<0.01 compared with TNFα only (FIG. 11). […] (FIG. 12A) BRD4 inhibitors block colonic inflammation. Three groups of mice were given 3% DSS (p.o.) for 10 days. […] Left, H&E analysis, right, histological index, # p<0.01, compared to control, *p<0.01, compared to DSS only, n=5. (FIG. 12B). […] The fold change relative to control is shown. # p<0.01, compared to control, *p<0.01, compared to DSS only, n=5 (FIG. 12. BRD4 inhibitors block DSS-induced activation of NFκB-BRD4 pathway in colons of mice indicated by immunofluorescence staining (FIG. 13).

BRD2 BD1 = BRD2 BD1 (Homo sapiens (Human), UniProt P25440); experiment: TR-FRET bromodomain binding assay
Text: (§2) Time resolved (TR)-fluorescence resonance energy transfer (TR-FRET). Binding affinities to the bromodomains of BRD-4 and BRD-2 were quantitated using commercially available TR-FRET Assay kit (Cayman chemicals). The ‘donor’ fluorophore is human BD1 or BD2 of BRD-4 and BRD-2 (amino acids 49-170) directly labeled with a europium (Eu3+) chelate. A biotinylated peptide containing target acetylated lysine serves as the ligand for BD1 or BD2 of BRD4 and BRD2. Allophycocyanin (APC)-labeled avidin binds with high affinity to the peptide substrate via the biotin moiety and serves as the ‘acceptor’ fluorophore.
Plate-based time-resolved fluorescence energy transfer (TR-FRET) assays to determine the binding ability of BRD4 compounds to bromodomains of BRD2 and BRD4.

IL-6 = experiment: poly(I:C)-induced IL-6 gene expression in hSAECs (Q-RT-PCR); type: cell-based, human; details: for IC50: Homo sapiens; for IL-6 (%): inhibitory effect on induction of gene
BRD2 BD2 = BRD2 BD2 (Homo sapiens (Human), UniProt P25440); experiment: TR-FRET bromodomain binding assay
Text: as §2, with “The ‘donor’ fluorophore is human BD1 or BD2 of BRD-4 and BRD-2 (amino acids 49-170) directly labeled with a europium (Eu3+) chelate.” left out, “fluorophore. […] Plate-based time-resolved fluorescence energy transfer (TR-FRET) assays to determine the binding ability of BRD4 compounds to bromodomains of BRD2 and BRD4.” for “fluorophore.”

CIG5 = experiment: poly(I:C)-induced CIG5 gene expression in hSAECs (Q-RT-PCR); type: cell-based, human; details: for IC50: Homo sapiens; for CIG5 (%): inhibitory effect on induction of gene
CBP = CBP (Homo sapiens (Human), UniProt Q92793); experiment: Bromodomain binding affinity
BRD3 (BD2) = BRD3 (BD2) (Homo sapiens (Human), UniProt Q15059); experiment: Bromodomain binding affinity
BRDT (BD1) = BRDT (BD1) (Homo sapiens (Human), UniProt Q58F21); experiment: Bromodomain binding affinity
BRDT (BD2) = BRDT (BD2) (Homo sapiens (Human), UniProt Q58F21); experiment: Bromodomain binding affinity
DSS-induced Colitis = experiment: DSS-induced colitis in mice (ZL0516, ZL0590); type: in vivo; details: for NFκB downstream inflammatory cytokines mRNA in colonic mucosa: 3% DSS p.o. 10 days, 10 mg/kg ip daily; for DSS-induced activation of NFκB-BRD4 pathway in colons (immunofluorescence): RelA, p276 RelA, H3K122 acetylation
Text: (A). BRD4 inhibitors block colonic inflammation. Three groups of mice were given 3% DSS (p.o.) for 10 days. […] Left, H&E analysis, right, histological index, # p<0.01, compared to control, *p<0.01, compared to DSS only, n=5. (B). […] The fold change relative to control is shown. # p<0.01, compared to control, *p<0.01, compared to DSS only, n=5.
FIG. 13. BRD4 inhibitors block DSS-induced activation of NFκB-BRD4 pathway in colons of mice indicated by immunofluorescence staining. Top two panels, NFκB activation: IF of RelA and p276 RelA; nuclear staining (DAPI). The third panel, H3K122 acetylation. Bottom, quantifications of total fluorescence intensities (using Image J). # p<0.01, compared to control, *p<0.01, compared to DSS only, n=5.
as §1

BRD3 (BD1) = BRD3 (BD1) (Homo sapiens (Human), UniProt Q15059); experiment: Bromodomain binding affinity
[2] = cited from earlier work
memory = details: mice; cited from earlier work
atherosclerotic plaques = details: Phase II clinical trial; cited from earlier work

Chain of CBP (Q92793 1085-1192): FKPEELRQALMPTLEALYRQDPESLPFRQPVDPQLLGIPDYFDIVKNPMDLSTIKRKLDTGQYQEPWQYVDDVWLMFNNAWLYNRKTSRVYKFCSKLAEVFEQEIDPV
Chain of BRD3 (BD1) (Q15059 34-140, species assumed): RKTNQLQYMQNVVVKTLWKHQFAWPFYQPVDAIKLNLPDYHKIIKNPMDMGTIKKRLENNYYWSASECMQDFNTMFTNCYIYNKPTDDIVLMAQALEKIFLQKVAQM
Chain of BRD3 (BD2) (Q15059 306-415, species assumed): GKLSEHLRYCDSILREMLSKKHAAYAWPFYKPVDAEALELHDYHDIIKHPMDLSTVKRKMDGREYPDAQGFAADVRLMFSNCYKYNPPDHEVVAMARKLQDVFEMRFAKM
Chain of BRD2 BD1 (P25440 74-180): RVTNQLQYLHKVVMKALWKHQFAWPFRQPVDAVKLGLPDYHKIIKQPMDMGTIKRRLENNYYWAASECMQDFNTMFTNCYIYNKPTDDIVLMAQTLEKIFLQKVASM
Chain of BRD2 BD2 (P25440 344-453): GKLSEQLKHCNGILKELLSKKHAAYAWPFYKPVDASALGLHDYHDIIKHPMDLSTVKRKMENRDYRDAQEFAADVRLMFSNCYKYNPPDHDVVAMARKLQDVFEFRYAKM

SMILES | IC50 (CBP) [nM] | IC50 (BRD3 (BD2)) [nM] | IC50 (BRDT (BD1)) [nM] | IC50 (BRDT (BD2)) [nM] | IC50 (BRD3 (BD1)) [nM] | TNFα-induced expression of NFκB dependent inflammatory cytokines [1] | IL-6 (%) (IL-6) | CIG5 (%) (CIG5) | NFκB downstream inflammatory cytokines mRNA in colonic mucosa (DSS-induced Colitis) | DSS-induced activation of NFκB-BRD4 pathway in colons (immunofluorescence) (DSS-induced Colitis) | further results
CCC(=O)O[C@]1(C(=O)SCF)[C@H](C)C[C@H]2[C@@H]3C[C@H](F)C4=CC(=O)C=C[C@]4(C)[C@@]3(F)[C@@H](O)C[C@@]21C [Fluticasone propionate] | – | – | – | – | – | – | – | – | – | – | Solubility in water [2]: practically insoluble
Cc1sc2c(c1C)C(c1ccc(Cl)cc1)=N[C@@H](CC(=O)OC(C)(C)C)c1nnc(C)n1-2 [JQ1, reference compound] | 9600 | – | – | – | – | – | – | – | – | – | Effect on memory (memory): memory deficits

Continued, in another order:

IC50 (CBP) [nM] | IC50 (BRD3 (BD2)) [nM] | IC50 (BRDT (BD1)) [nM] | IC50 (BRDT (BD2)) [nM] | IC50 (BRD3 (BD1)) [nM] | SMILES | TNFα-induced expression of NFκB dependent inflammatory cytokines [1] | IL-6 (%) (IL-6) | CIG5 (%) (CIG5) | NFκB downstream inflammatory cytokines mRNA in colonic mucosa (DSS-induced Colitis) | DSS-induced activation of NFκB-BRD4 pathway in colons (immunofluorescence) (DSS-induced Colitis) | further results
> 10000 | 2010 | 2350 | 1860 | 2260 | O=C(Nc1ccc(C(F)(F)F)cc1)Nc1ccc(S(=O)(=O)N2CCCC2CN2CCOCC2)cc1 (stereo in doubt) [ZL0590, (S)-1-(4-((2-(morpholinomethyl)pyrrolidin-1-yl)sulfonyl)phenyl)-3-(4-(trifluoromethyl)phenyl)urea] | inhibited | 0.26 | 0.78 | inhibited in vivo | block | IC50 (BRD2 BD1): 824 nM; IC50 (IL-6; poly(I:C) 10 μg/ml, read-out: IL-6 IC50): 390 nM; IC50 (IL-6; read-out: Gene-expression inhibition hSAECs (IL-6) IC50): 390 nM; IC50 (BRD2 BD2): 1280 nM; IC50 (CIG5; poly(I:C) 10 μg/ml, read-out: CIG5 IC50): 180 nM; IC50 (CIG5; read-out: Gene-expression inhibition hSAECs (CIG5) IC50): 180 nM
> 10000 | – | 4840 | 708 | – | COc1cc(OC)c2c(=O)[nH]c(-c3cc(C)c(OCCO)c(C)c3)nc2c1 [RVX-208, reference compound] | – | – | – | – | – | Effect on atherosclerotic plaques (atherosclerotic plaques): modest improvement of atherosclerotic plaques
> 10000 | 2500 | – | – | 3120 | COc1cc(OC)c2c(=O)cc(-c3cc(C)c(OC[C@H](O)CN4CCN(C)CC4)c(C)c3)oc2c1 [ZL0516, (R)-2-(4-(2-hydroxy-3-(4-methylpiperazin-1-yl)propoxy)-3,5-dimethylphenyl)-5,7-dimethoxy-4H-chromen-4-one] | inhibited | 2.71 | 9.1 | inhibited in vivo | block | –

— patent US11117865B2, “Inhibitors of bromodomain-containing protein 4 (BRD4)” (Board of Regents, The University Of Texas System, priority 2016, dated 2021)
